Where two headings read alike, the source gives them in different places.
Assays:
[1] = test system: ovarian carcinoma tumor cell lines; assay: NCI panel, ovarian carcinoma; format: cell-based; settings: Homo sapiens; read-out: GI50 range, ovarian carcinoma
Text: (§1) A study measuring the in vitro cytotoxic activity of Compound 1 was first performed by the NCI (National Cancer Institute, U.S. National Institutes of Health, Bethesda, Md., USA) against a panel of human cancer cell lines. This screen utilizes 60 different human tumor cell lines, representing cancers of the blood, skin, lung, colon, brain, ovary, breast, prostate, and kidney. Further information regarding the NCI panel of human cancer lines can be obtained by following the links at the NCI world-wide website of the National Cancer Institute. The compound was sent and tested on three occasions (Mar. 31, 2003; Dec. 1, 2003; Mar. 27, 2007).

[2] = test system: U87 glioma cells and HVMEC-B; assay: Fluorimetric caspase-3 activity, U87 glioma versus brain endothelial cells; format: cell-based, human; settings: 0-30 μM, 18 hours
Experimental: To test the effect of Compound 1 on caspase 3 activity in endothelial cells, the following experiment was conducted. HVMEC-B and U87 glioma cells were treated with increasing concentrations of Compound 1 (0-30 μM) in serum-free media for 18 hours. Fluorimetric caspase-3 activity assay was performed as follows: cells were grown to about 60% confluence in 6-well dishes and treated with increasing concentrations of Compound 1 for 18 hours. Cells were then collected and washed in ice-cold PBS pH 7.0. Cells were subsequently lysed in Apo-Alert lysis buffer (Clontech, Palo Alto, Calif.) for 1 hr at 4° C. and the lysates were clarified by centrifugation. Caspase-3 activity was determined by incubation with 50 μM caspase-3-specific fluorogenic peptide substrate acetyl-Asp-Glu-Val-Asp-7-amino-4-trifluoromethylcoumarin (Ac-DEVD-AFC) in 96-well plates. The release of AFC was monitored for at least 30 min at 37° C. on a fluorescence plate reader (Molecular Dynamics (Amersham Biosciences Inc, Sunnyvale, Calif.)) (λex=400 nm, λem=505 nm).

[3] = test system: 60 different human tumor cell lines; assay: NCI in vitro screening, 60 human tumor cell lines; format: cell-based; settings: 60 cell lines
Text: as §1

[4] = TLN-4601 concentrations in plasma and tissues of rats with C6 orthotopic brain tumors; format: in vivo; settings: rat; for concentration at 60 min: CIV for 60 min
Experimental: (R)-1-(2-chlorophenyl)-[…]N-(1-methyl-propyl)-3-isoquinoline carboxamide (R N-desmethyl PK11195), the precursor for the radioisotope-labeled (R)-PK11195, was purchased from ABX (Radeburg, Germany). The synthesis of ^11C-(R)-PK11195 was accomplished by a modification of the method of Camsonne et al. (J. Label. Compd. Radiopharm., 21: 985-991, 1984). In vivo PET studies were performed 14 days post tumor implantation. PET imaging studies were performed while the animals were anesthetized and placed in the supine position on the bed and at the center of the FOV of the CTI Concorde R4 microPET scanner (Siemens/CTI Concorde, Knoxville, Tenn.). Each dynamic PET study lasted 60 min and was initiated with an IV bolus administration of 11C-PK11195 (7.1-12.7 MBq) radioligand via the tail vein. Receptor occupancy studies were performed by acquisition of 11C-PK11195 images prior to and during TLN-4601 treatment over 60 minutes. TLN-4601 was administered by a bolus IV infusion (30 mg/kg) followed by continuous IV infusion (5 mg/h/kg) lasting through the dynamic scan. Attenuation correction factors, for each 6 rats, were determined using a 10 minute 57 Co transmission scan acquired immediately prior to the dynamic scan. In addition, all images were scatter corrected.
Following completion of in vivo studies, animals were sacrificed by anesthetic overdose and decapitated. Brain, tumor, and liver were snap-frozen in liquid nitrogen and stored frozen (−70° C.±10° C.). For blood samples, each blood sample was collected into a K2-EDTA tube and kept on wet ice for a maximum of 30 minutes. Blood samples were centrifuged under refrigeration (2 to 8° C.) for 10 minutes at 1,500 g (RCF). A volume of 25 μL of aqueous 4% w/v L-ascorbic acid was added to a volume of 225 μL of rat plasma in a clean tube, and the samples were thoroughly mixed by inversion. A volume of 125 uL of the resulting mixture was transferred to a separate tube for bioanalysis, while the remaining mixture was maintained as a backup, and both the bioanalysis and back-up portions were frozen on dry ice and stored frozen (−70° C.±10° C.).
Rat plasma and tissue samples were extracted with 9 volumes of acetone containing 100 ng/mL of the internal standard (Compound 2) and analysed by HPLC/MS/MS as described in Gourdeau et al (Cancer Chemother Pharmacol vol 61 pp. 911-921).

[5] = test system: colon carcinoma tumor cell lines; assay: NCI panel, colon carcinoma; format: cell-based; settings: Homo sapiens; read-out: GI50 range, colon carcinoma
Text: as §1

SRBC = assay: Hemolysis of SRBC; format: cell-based
U87 parental = assay: Caspase-3 activity, U87 parental cells; format: cell-based, human; settings: 18 h, serum-free medium
Experimental: Firstly, cells (U87 parental, U87 transfected with EGFR-WT, and U87 transfected with mutated EGFR VIII) were plated in 6 well plates in DMEM containing 10% FBS. The following day, the plated cells were treated with increasing concentrations of Compound 1 (TLN-4601) in serum-free medium. After an 18 h incubation period in the presence of Compound 1, the treated cells were measured for caspase-3 activity using a commercial kit.

[6] = test system: breast carcinoma tumor cell lines; assay: NCI panel, breast carcinoma; format: cell-based; settings: Homo sapiens; read-out: GI50 range, breast carcinoma
Text: as §1

MES-SA/DX5 = assay: MTT growth inhibitory assay, MES-SA/DX5; format: cell-based, human; settings: 72 hours
Experimental: (§2) Growth inhibitory activity of TLN-4601 (Compound 1) and other dibenzodiazepinone analogs was evaluated on a panel of 4 human tumor cell lines: the human uterine sarcoma MES-SA and its doxorubicin-resistant P-glycoprotein over-expressing variant, MES-SA/DX5 as well as non-aggressive and highly aggressive human breast cell lines, MCF-7 and MDA-MB-231, respectively. These four cell lines were obtained from the American Type Culture Collection (Manassas, Va.) and cultured in RPMI plus 10% fetal bovine serum (FBS) and maintained at 37° C. with 5% CO2.
(§3) Exponentially growing cells (5,000 cells per well time; cell number determined with a hemocytometer) were seeded in 96-well flat-bottom plates and allowed to grow overnight. Cells were then incubated for 72 hours with three different concentrations of TLN-4601 or analogs: 30, 10, and 3 μM. The in vitro growth inhibitory activity was determined by a commercial MTT assay. All measurements were done in quadruplicate and each experiment was performed 2-3 times. The lower the value, the more cytotoxic is the compound.

MCF-7 = assay: MTT growth inhibitory assay, MCF-7; format: cell-based, human; settings: 72 hours
Experimental: as §2, §3

MDA-MB-231 = assay: MTT growth inhibitory assay, MDA-MB-231; format: cell-based, human; settings: 72 hours
Experimental: as §2, §3

MES-SA = assay: MTT growth inhibitory assay, MES-SA; format: cell-based, human; settings: 72 hours
Experimental: as §2, §3

PBR = molecular target: T1, PBR (Rattus norvegicus, UniProt P16257); assay: In-house PBR binding assay, [3H]PK11195, rat heart mitochondrial membrane
T1 construct: containing the enriched mitochondria membrane preparation (25 μg of protein); from tissue; host or cells: Sprague Dawley rat heart, enriched mitochondrial membrane preparation

Row | concentration at 60 min ([4]; Sprague-Dawley, liver, intravenous, read-out: concentration in liver) | concentration at 60 min ([4]; Sprague-Dawley, plasma, intravenous, read-out: concentration in plasma) | Kp at 60 min ([4]; Sprague-Dawley, tumor / plasma, intravenous, read-out: tumor compared to plasma) | concentration at 60 min ([4]; Sprague-Dawley, tumor, intravenous, read-out: accumulation in the tumor) | tumor compared to liver ([4]; in vivo) | IC50 (PBR) | Compound | GI50 [1] | caspase-3 activity of U87 glioma cells compared to normal human brain endothelial cells [2] | cytotoxic activity in the NCI panel [3] | GI50 [5] | Hemolysis ED50 (concentration necessary to achieve 50% hemolysis of SRBC) (SRBC) | increase in caspase-3 activation (U87 parental) | GI50 [6] | % T/C at 10 μM, MES-SA/DX5 (MES-SA/DX5) | % T/C at 10 μM, MCF-7 (MCF-7) | % T/C at 10 μM, MDA-MB-231 (MDA-MB-231) | % T/C at 10 μM, MES-SA (MES-SA)
1 | 24800 ng/g | 16200 ng/g | 11 | 176 µg/mL | 7 fold | – | CC(C)=CCC/C(C)=C/CC/C(C)=C/CN1C(=O)c2cccc(O)c2Nc2c(O)cc(O)cc21 [Compound 1, 10-farnesyl-4,6,8-trihydroxy-5,10-dihydrodibenzo[b,e][1,4]diazepin-11-one] | 2.5 to 6.2 µM | 2-3 fold | broad cytotoxic activity in the low micromolar range | 3 to 17.3 µM | 7.6 µg/mL | approximately 15 fold | 1.4 to 16.3 µM | – | – | – | –
2 | – | – | – | – | – | 2600 nM | CC(C)=CCC/C(C)=C/CC/C(C)=C/CN1C(=O)c2cccc(O)c2Nc2c1cc(O)c(Br)c2O [Compound 97] | – | – | – | – | 15.1 µg/mL | – | – | 83% | 28% | 68% | 80%
3 | – | – | – | – | – | – | CC(C)=CCC/C(C)=C/CC/C(C)=C/CN1C(=O)c2cccc(O)c2N(C)c2c1cc(O)c(Br)c2O [Compound 99] | – | – | – | – | – | – | – | 24% | 50% | 55% | 28%
